The text below walks through data of ChEMBL document CHEMBL4043266, “Pentacyclic triterpenes as α-glucosidase and α-amylase inhibitors: Structure-activity relationships and the synergism with acarbose” (Bioorg Med Chem Lett, 2017).

For experiment [1], the target named is T1, Pancreatic alpha-amylase (Sus scrofa) (UniProt P00690).
T1 sequence (whole entry): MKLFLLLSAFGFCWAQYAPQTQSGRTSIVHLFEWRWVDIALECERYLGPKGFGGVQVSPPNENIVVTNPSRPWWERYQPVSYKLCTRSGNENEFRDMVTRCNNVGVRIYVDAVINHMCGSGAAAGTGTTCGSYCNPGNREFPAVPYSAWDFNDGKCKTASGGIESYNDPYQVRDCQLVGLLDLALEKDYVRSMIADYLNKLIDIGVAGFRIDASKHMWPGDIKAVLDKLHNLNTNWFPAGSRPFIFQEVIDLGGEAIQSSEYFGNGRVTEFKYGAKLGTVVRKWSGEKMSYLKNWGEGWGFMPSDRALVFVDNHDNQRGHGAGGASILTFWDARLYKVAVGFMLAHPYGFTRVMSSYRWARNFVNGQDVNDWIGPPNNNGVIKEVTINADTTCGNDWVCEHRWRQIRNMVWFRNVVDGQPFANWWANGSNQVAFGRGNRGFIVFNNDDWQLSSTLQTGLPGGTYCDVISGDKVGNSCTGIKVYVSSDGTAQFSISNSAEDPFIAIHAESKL
Description: Non-competitive inhibition of porcine pancreatic alpha-amylase assessed as inhibitor-enzyme complex using starch as substrate by Lineweaver-Burk plot analysis

The target in experiment [2] is T1, Pancreatic alpha-amylase (Sus scrofa). The source holds these as a separate data set.
Description: Non-competitive inhibition of porcine pancreatic alpha-amylase assessed as inhibitor-enzyme-substrate complex using starch as substrate by Lineweaver-Burk plot analysis

Compound `C[C@H]1[C@H](C)CC[C@]2(C(=O)O)CC[C@]3(C)C(=CC[C@@H]4[C@@]5(C)C[C@@H](O)[C@H](O)C(C)(C)[C@@H]5CC[C@]43C)[C@H]12` gave a Kii in experiment [1] of 28.3 µM. For the same compound, in experiment [2], the Kis amounted to 25.6 µM.
